Among the data in patent US6967196B1, “Sulfonamide compounds and uses thereof” (Bristol-Myers Squibb Company, priority 1999, dated 2005) are IC50 values, retold here.

The subject of one experiment is amyloid β production in transfected H4 (human neuroglioma) cells stably expressing APP constructs. Nature of the experiment: In vitro cell-based assay of inhibitors of amyloid β production (ELISA). The conditions noted are these: Homo sapiens, 16 h, transfected H4 cells expressing APP, approximately 16 hours incubation, amyloid β in medium by ELISA; read-out: ACTIVITY (IC50, inhibition of amyloid β production). Summed up: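 Aβ secreted into the medium was determined by a two-antibody ELISA specific for the Aβ C-terminus, calibrated with known Aβ amounts. Before that, compounds (10-100 μM initially) were left on the cells for roughly 16 hours.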
On the technique in general: An ELISA detects its analyte on a solid surface through an enzyme-linked reagent.
The term IC50 denotes the concentration that gives 50% inhibition. On to `CC1CCC(NC(=O)[C@@H](C)N(c2cc(Cl)ccc2F)S(=O)(=O)c2ccc(Cl)cc2)CC1` (stereo partly shown) [Example 1342], for which the IC50 lay in the range of 0.1 to 0.5 µM.

With `C[C@H](C(=O)N[C@@H](CO)CSCc1ccccc1)N(c1cc(Cl)ccc1F)S(=O)(=O)c1ccc(Cl)cc1` [Example 1343], the half-inhibitory concentration (IC50) is > 0.5 µM.

In the case of `C[C@H](C(=O)NC(C)(C)CO)N(c1cc(Cl)ccc1F)S(=O)(=O)c1ccc(Cl)cc1` [Example 1344], the IC50 is 0.1 to 0.5 µM.

Take `C[C@H](C(=O)NC1CCCCCCC1)N(c1cc(Cl)ccc1F)S(=O)(=O)c1ccc(Cl)cc1` [Example 1345]: the IC50 lay in the range of 0.1 to 0.5 µM.

For `COCCCNC(=O)[C@@H](C)N(c1cc(Cl)ccc1F)S(=O)(=O)c1ccc(Cl)cc1` [Example 1346], the concentration for half-maximal inhibition (IC50) was in the range of 0.1 to 0.5 µM.

Turning to `CC1CCCC(NC(=O)[C@@H](C)N(c2cc(Cl)ccc2F)S(=O)(=O)c2ccc(Cl)cc2)C1` (stereo partly shown) [Example 1347], the 50% inhibitory concentration (IC50) was 0.1 to 0.5 µM.

For `CCC(C)(C)c1ccc(OCCCCNC(=O)[C@@H](C)N(c2cc(Cl)ccc2F)S(=O)(=O)c2ccc(Cl)cc2)c(C(C)(C)CC)c1` [Example 1348], the IC50 was > 0.5 µM.

Turning to `CC(C)C(CO)NC(=O)[C@@H](C)N(c1cc(Cl)ccc1F)S(=O)(=O)c1ccc(Cl)cc1` (stereo partly shown) [Example 1349], the IC50 lay within 0.1 to 0.5 µM.

Regarding `C[C@H](C(=O)NCCCCCCO)N(c1cc(Cl)ccc1F)S(=O)(=O)c1ccc(Cl)cc1` [Example 1350], the IC50 is 0.1 to 0.5 µM.

Take `C[C@H](C(=O)N[C@H](C)C1CCCCC1)N(c1cc(Cl)ccc1F)S(=O)(=O)c1ccc(Cl)cc1` [Example 1351]: the half-inhibitory concentration (IC50) was > 0.5 µM.

`C[C@H](C(=O)NCCN1CCCCC1)N(c1cc(Cl)ccc1F)S(=O)(=O)c1ccc(Cl)cc1` [Example 1352]: the half-inhibitory concentration (IC50) was > 0.5 µM.

In the case of `COc1ccc(CCNC(=O)[C@@H](C)N(c2cc(Cl)ccc2F)S(=O)(=O)c2ccc(Cl)cc2)cc1` [Example 1353], the IC50 was > 0.5 µM.

Consider `C[C@H](C(=O)N(CCN)c1ccc([N+](=O)[O-])cn1)N(c1cc(Cl)ccc1F)S(=O)(=O)c1ccc(Cl)cc1` [Example 1354], for which the 50% inhibitory concentration (IC50) is > 0.5 µM.

In the case of `C[C@H](C(=O)N[C@H](CO)Cc1ccccc1)N(c1cc(Cl)ccc1F)S(=O)(=O)c1ccc(Cl)cc1` [Example 1355], the IC50 is > 0.5 µM.

Regarding `C[C@H](C(=O)NCc1cccs1)N(c1cc(Cl)ccc1F)S(=O)(=O)c1ccc(Cl)cc1` [Example 1357], the half-maximal inhibitory concentration (IC50) was 0.1 to 0.5 µM.

Take `CC(C(=O)N[C@@H]1C[C@H]2CC[C@@H]1CC2)N(c1cc(Cl)ccc1F)S(=O)(=O)c1ccc(Cl)cc1` (stereo partly shown) [Example 1358]: the IC50 lay within 0.1 to 0.5 µM.

Consider `C[C@H](C(=O)NCCc1ccccc1F)N(c1cc(Cl)ccc1F)S(=O)(=O)c1ccc(Cl)cc1` [Example 1359], for which the concentration for half-maximal inhibition (IC50) was > 0.5 µM.

In the case of `C[C@H](C(=O)NCCCCO)N(c1cc(Cl)ccc1F)S(=O)(=O)c1ccc(Cl)cc1` [Example 1360], the IC50 is 0.1 to 0.5 µM.

Turning to `COc1ccc(CNC(=O)[C@@H](C)N(c2cc(Cl)ccc2F)S(=O)(=O)c2ccc(Cl)cc2)cc1` [Example 1361], the concentration for half-maximal inhibition (IC50) is > 0.5 µM.

As for `COc1cc(CNC(=O)[C@@H](C)N(c2cc(Cl)ccc2F)S(=O)(=O)c2ccc(Cl)cc2)cc(OC)c1OC` [Example 1362], the IC50 was > 0.5 µM.

Turning to `C[C@@H](C(=O)NCc1ccccc1Sc1ccccc1CO)N(c1cc(Cl)ccc1F)S(=O)(=O)c1ccc(Cl)cc1` [Example 1363], the IC50 was > 0.5 µM.

Regarding `C[C@H](C(=O)NCc1cc(Cl)cc(Cl)c1)N(c1cc(Cl)ccc1F)S(=O)(=O)c1ccc(Cl)cc1` [Example 1365], the IC50 is > 0.5 µM.

For `C[C@H](C(=O)NCc1ccc(C2=CSNN2)cc1)N(c1cc(Cl)ccc1F)S(=O)(=O)c1ccc(Cl)cc1` [Example 1366], the IC50 is > 0.5 µM.

The same experiment, now with this note: transfected H4 cells expressing APP, approximately 16 hours incubation, amyloid β in medium by ELISA; read-out: ACTIVITY (IC50, inhibition of amyloid β production).
`C[C@H](C(=O)NCc1cc(F)ccc1F)N(c1cc(Cl)ccc1F)S(=O)(=O)c1ccc(Cl)cc1` [Example 1356]: the half-maximal inhibitory concentration (IC50) was > 0.5 µM.

`COc1cccc(OC)c1CNC(=O)[C@@H](C)N(c1cc(Cl)ccc1F)S(=O)(=O)c1ccc(Cl)cc1` [Example 1364]: the IC50 was > 0.5 µM.

The same experiment, now with this note: transfected H4 cells stably expressing APP constructs; approximately 16 hours incubation; amyloid β in medium by ELISA; read-out: ACTIVITY (IC50, inhibition of amyloid β production).
Turning to “(2E)-1-N-(benzyloxy)-3-[2-({[(4-chlorophenyl)sulfonyl]anilino}methyl)phenyl]-2-propenamide hydrochloride [Example 1093]”, the IC50 is > 10 µM.

Turning to “(R)-4-Chloro-N-(2,5-difluorophenyl)-N-[1-[4-fluoro-2-[1-(1,1-dioxo-2-methyl-4-thiomorpholinyl)butanoyl]phenyl]ethyl]benzenesulfonamide [Example 1277]”, the half-maximal inhibitory concentration (IC50) is ≤ 0.025 µM.

As for “(R)-4-Chloro-N-(2,5-difluorophenyl)-N-[1-[4-fluoro-2-[1-(2-methyl-4-thiomorpholinyl)butanoyl]phenyl]ethyl]benzenesulfonamide [Example 1276]”, the IC50 is ≤ 0.025 µM.

Staying with this experiment, now noted: transfected H4 cells stably expressing APP; approx. 16 h incubation; amyloid β in medium by ELISA; read-out: ACTIVITY (IC50, inhibition of amyloid β production).
Take “(2E)-1-N-{3-[2-({[(4-chlorophenyl)sulfonyl]-2,5-difluoroanilino}methyl)phenoxy]propyl}-N-methyl-2-butenamide [Example 783]”: the IC50 was 0.1 to 0.5 µM.

As to “(2E)-N-{2-[2-(1-{[(4-chlorophenyl)sulfonyl]-2,5-difluoroanilino}ethyl)phenoxy]ethyl}-N-ethyl-2-butenamide [Example 649]”, the 50% inhibitory concentration (IC50) was 0.1 to 0.5 µM.

On to “(2S)-2-[[2-((1R)-1-{[(4-chlorophenyl)sulfonyl]-2,5-difluoroanilino}ethyl)benzyl](methyl)amino]propanoic acid hydrochloride [Example 659]”, for which the 50% inhibitory concentration (IC50) lay within 0.1 to 0.5 µM.

On to “(2Z)-N-{3-[2-(1-{[(4-chlorophenyl)sulfonyl]-2,5-difluoroanilino}ethyl)phenoxy]propyl}-3-phenyl-2-propenamide [Example 732]”, for which the IC50 is 0.1 to 0.5 µM.

“(2Z)-N-{3-[2-(1-{[(4-chlorophenyl)sulfonyl]-2,5-difluoroanilino}ethyl)phenoxy]propyl}-N-methyl-3-phenyl-2-propenamide [Example 738]”: the IC50 fell in the range of 0.1 to 0.5 µM.

Turning to “N-{2-[2-(1-{[(4-chlorophenyl)sulfonyl]-2,5-difluoroanilino}ethyl)phenoxy]ethyl}-2-ethyl-N-methylhexanamide [Example 793]”, the IC50 lay within 0.1 to 0.5 µM.

Turning to “N-{2-[2-(1-{[(4-chlorophenyl)sulfonyl]-2,5-difluoroanilino}ethyl)phenoxy]ethyl}-3-cyclopentyl-N-methylpropanamide [Example 653]”, the IC50 lay in the range of 0.1 to 0.5 µM.

“N-{2-[2-(1-{[(4-chlorophenyl)sulfonyl]-2,5-difluoroanilino}ethyl)phenoxy]ethyl}-N-ethyl-1-adamantanecarboxamide [Example 769]”: the IC50 lay in the range of 0.1 to 0.5 µM.

The experiment is the same for the next values; noted with them: transfected H4 cells stably expressing APP; approximately 16 hours incubation; amyloid β in medium by ELISA; Table B; read-out: ACTIVITY (IC50, inhibition of amyloid β production).
In the case of “(2E)-N-{4-[2-(1-{[(4-chlorophenyl)sulfonyl]-2,5-difluoroanilino}ethyl)phenoxy]butyl}-N-ethyl-2-butenamide [Example 514]”, the 50% inhibitory concentration (IC50) lay in the range of 0.1 to 0.5 µM.

For the compound “(2E)-N-{4-[2-(1-{[(4-chlorophenyl)sulfonyl]-2,5-difluoroanilino}ethyl)phenoxy]butyl}-N-methyl-2-butenamide [Example 495]”, the IC50 was 0.1 to 0.5 µM.

The experiment is the same for the next values; noted with them: transfected H4 cells stably expressing APP; approximately 16 hours incubation; amyloid β in medium by ELISA; read-out: ACTIVITY (IC50, inhibition of amyloid β production).
In the case of “(2E)-3-[2-({[(4-chlorophenyl)sulfonyl]anilino}methyl)phenyl]-2-propenoic acid [Example 1035]”, the IC50 was > 0.5 µM.

On to “(2E)-3-[2-({[(4-chlorophenyl)sulfonyl]anilino}methyl)phenyl]-N-methoxy-N-methyl-2-propenamide [Example 1034]”, for which the IC50 is > 0.5 µM.

In the case of “(2R)-2-{[(4-chlorophenyl)sulfonyl]-2,5-difluoroanilino}propanoic acid [Example 1013]”, the IC50 was > 0.5 µM.

Consider “(2R)-2-{[(4-chlorophenyl)sulfonyl]-2,5-difluoroanilino}propyl isonicotinate [Example 1057]”, for which the IC50 was > 0.5 µM.

Regarding “(2R)-2-{[(4-chlorophenyl)sulfonyl]-2,5-difluoroanilino}propyl nicotinate [Example 1058]”, the IC50 is > 0.5 µM.

With “(2R, 3R)-2,4-bis[(4-methylbenzoyl)oxy]butanedioic acid compound with 4-chloro-N-(2,5-difluorophenyl)-N-((1R)-1-{2-[3-(1H-imidazol-1- [Example 1049]”, the IC50 was > 0.5 µM.

As to “(E)-N-(2,5-dichlorophenyl)-2-phenyl-N-{2-[3-(1-piperidinyl)propoxy]benzyl}ethanesulfonamide hydrochloride [Example 994]”, the half-maximal inhibitory concentration (IC50) is > 0.5 µM.

In the case of “N-hydroxy-3-(2-{[(phenylsulfonyl)anilino]methyl}phenyl)propanamide [Example 1042]”, the 50% inhibitory concentration (IC50) is > 0.5 µM.

“N-{2-[2-(1-{[(4-chlorophenyl)sulfonyl]-2,5-difluoroanilino}ethyl)phenoxy]ethyl}-2-cyclohexyl-N-methylacetamide [Example 844]”: the half-maximal inhibitory concentration (IC50) is 0.1 to 0.5 µM.

Regarding “N-{2-[2-(1-{[(4-chlorophenyl)sulfonyl]-2,5-difluoroanilino}ethyl)phenoxy]ethyl}-3-cyclopentyl-N-ethylpropanamide [Example 857]”, the 50% inhibitory concentration (IC50) is 0.1 to 0.5 µM.

In the case of “N-{2-[2-(1-{[(4-chlorophenyl)sulfonyl]-2,5-difluoroanilino}ethyl)phenoxy]ethyl}-N,2-diethylhexanamide [Example 831]”, the IC50 was 0.1 to 0.5 µM.
